# Assay results reported in the Kinase Knowledgebase extract (Sharma et al. 2016).
# Target: PIK3CA (human) (UniProt P42336)
# Test: Assessment of PIK3CA Kinase Activity
# PIK3CA (human), sequence (P42336 whole entry, looked up): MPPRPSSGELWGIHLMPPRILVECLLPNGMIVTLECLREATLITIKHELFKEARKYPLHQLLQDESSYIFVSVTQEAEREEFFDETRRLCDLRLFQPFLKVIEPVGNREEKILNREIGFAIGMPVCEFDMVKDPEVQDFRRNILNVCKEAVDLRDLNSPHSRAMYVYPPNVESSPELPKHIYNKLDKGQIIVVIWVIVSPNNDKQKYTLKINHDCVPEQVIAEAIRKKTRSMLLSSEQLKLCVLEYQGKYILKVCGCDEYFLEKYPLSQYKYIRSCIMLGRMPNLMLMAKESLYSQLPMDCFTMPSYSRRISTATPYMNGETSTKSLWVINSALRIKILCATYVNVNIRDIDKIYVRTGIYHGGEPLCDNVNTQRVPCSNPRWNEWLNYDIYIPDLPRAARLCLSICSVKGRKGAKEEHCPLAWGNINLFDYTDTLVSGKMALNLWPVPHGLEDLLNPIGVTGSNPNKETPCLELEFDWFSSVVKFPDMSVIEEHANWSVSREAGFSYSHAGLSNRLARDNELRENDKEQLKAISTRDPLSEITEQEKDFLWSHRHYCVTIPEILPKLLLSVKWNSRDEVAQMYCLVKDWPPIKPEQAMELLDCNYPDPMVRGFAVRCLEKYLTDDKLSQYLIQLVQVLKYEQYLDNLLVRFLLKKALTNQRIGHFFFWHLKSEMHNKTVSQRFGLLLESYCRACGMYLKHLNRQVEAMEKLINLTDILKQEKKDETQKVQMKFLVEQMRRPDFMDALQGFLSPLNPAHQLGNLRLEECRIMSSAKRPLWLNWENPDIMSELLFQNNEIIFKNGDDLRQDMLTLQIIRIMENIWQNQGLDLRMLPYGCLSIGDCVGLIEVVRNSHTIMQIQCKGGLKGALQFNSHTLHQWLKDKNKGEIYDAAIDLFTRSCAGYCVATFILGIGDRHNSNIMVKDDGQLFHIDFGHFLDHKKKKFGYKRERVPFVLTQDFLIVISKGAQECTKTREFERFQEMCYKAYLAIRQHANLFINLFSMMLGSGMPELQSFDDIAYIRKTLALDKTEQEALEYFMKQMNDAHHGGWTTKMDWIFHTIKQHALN
row,SMILES,IC50
1,CC(C)n1ncnc1-c1nc2c(s1)CCOc1cc(C3CCN(CC(=O)N(C)C)CC3)ccc1-2,< 1000 nM
2,CC(C)N(CCO)C(=O)c1nc2c(s1)CCOc1ccc(-c3ccc(N)nc3)cc1-2,< 1000 nM
3,O=C(c1nc2c(s1)CCOc1cc(-c3cn[nH]c3)ccc1-2)N1CCC[C@@H](O)C1,< 1000 nM
4,O=S1(=O)CCC(n2cc(-c3ccc4c(c3)OCCc3sc(-c5ncnn5CC(F)(F)F)nc3-4)cn2)C1 (stereo unspecified),< 1000 nM
5,Fc1ccc(-n2ncnc2-c2cc3c(s2)-c2nc(NCCN4CCCC4)ccc2OCC3)c(F)c1,< 1000 nM
6,COc1ncccc1-c1ccc2c(n1)-c1sc(-c3ncnn3-c3ccc(F)cc3F)cc1CCO2,< 1000 nM
7,COCCNCc1ccc2c(c1)OCCc1sc(-c3nncn3C(C)C)nc1-2,< 1000 nM
8,O=C(c1ccccc1)N1CCN(C(=O)c2nc3c(s2)CCOc2cc(-c4cn[nH]c4)ccc2-3)CC1,< 1000 nM
9,Fc1ccc(-n2ncnc2-c2cc3c(s2)-c2nc(NC4CCOCC4)ccc2OCC3)c(F)c1,< 1000 nM
10,CC(C)n1ncnc1-c1cc2c(s1)-c1ccc(-c3cnn(CCO)c3)cc1OCC2,< 1000 nM
11,C[C@@H]1CCN(C(=O)c2nc3c(s2)CCOc2cc(-c4cn[nH]c4)ccc2-3)C1,< 1000 nM
12,CC(C)n1ncnc1-c1nc2c(s1)CCOc1cc(O[C@@H](C)C(N)=O)ccc1-2,< 1000 nM
13,CN(C)c1ccc(-c2ccc3c(n2)-c2sc(-c4ncnn4-c4ccc(F)cc4F)cc2CCO3)cn1,< 1000 nM
14,CC(C)n1ncnc1-c1nc2c(s1)CCOc1cc(C(=O)NCCOCCO)ccc1-2,< 1000 nM
15,C[C@H](O)CNC(=O)c1ccc2c(c1)OCCc1sc(-c3ncnn3CC(F)(F)F)nc1-2,< 1000 nM
16,CS(=O)(=O)CCNc1ccc(-c2ccc3c(n2)-c2sc(-c4ncnn4-c4ccc(F)cc4F)cc2CCO3)cn1,< 1000 nM
17,CC(C)n1nc(N)nc1-c1nc2c(s1)CCOc1cc(C(=O)NC3CN(C)C3)ccc1-2,< 1000 nM

# Next, values leading:
row,IC50,SMILES
1,< 1000 nM,COCCOc1ncccc1-c1ccc2c(c1)-c1nc(-c3ncnn3C(C)C)sc1CCO2
2,< 1000 nM,FC(F)(F)Cn1ncnc1-c1nc2c(s1)CCOc1cc(-c3cnn(CCN4CCOCC4)c3)ccc1-2
3,< 1000 nM,O=C(c1nc2c(s1)CCOc1cc(-c3cn[nH]c3)ccc1-2)N1CCN(c2ccccn2)CC1
4,< 1000 nM,Cc1ccc(-c2ccc3c(c2)-c2nc(-c4ncnn4C(C)C)sc2CCO3)cn1
5,< 1000 nM,Fc1ccc(-n2ncnc2-c2cc3c(s2)-c2nc(NCCc4ccccc4)ccc2OCC3)c(F)c1
6,< 1000 nM,CC(C)n1ncnc1-c1nc2c(s1)CCOc1ccc(C3CCN(C(=O)[C@@H](C)O)CC3)cc1-2
7,< 1000 nM,Cc1noc(C)c1-c1ccc2c(c1)OCCc1sc(C(=O)N(CCO)C(C)C)nc1-2
8,< 1000 nM,CC(C)C[C@@H](CO)NC(=O)c1nc2c(s1)CCOc1cc(-c3cn[nH]c3)ccc1-2
9,< 1000 nM,Cc1nc(-c2nc3c(s2)CCOc2cc(C4CN(C(=O)[C@H](C)O)C4)ccc2-3)n(C(C)C)n1
10,< 1000 nM,Fc1ccc(-n2ncnc2-c2nc3c(s2)CCOc2cc(-c4cn[nH]c4)ccc2-3)c(F)c1
11,< 1000 nM,C[C@H](O)C(=O)N1CCN(c2ccc3c(n2)-c2sc(-c4ncnn4-c4ccc(F)cc4F)cc2CCO3)CC1
12,< 1000 nM,O=C(c1nc2c(s1)CCOc1cc(-c3cn[nH]c3)ccc1-2)N1CCC(c2ccc(F)cc2F)CC1
13,< 1000 nM,CN(C[C@H](O)c1ccccc1)C(=O)c1nc2c(s1)CCOc1cc(-c3cn[nH]c3)ccc1-2
14,< 1000 nM,CC1CCN(C(=O)c2nc3c(s2)CCOc2cc(-c4cn[nH]c4)ccc2-3)CC1
15,< 1000 nM,CN1CCC(CNc2ccc3c(n2)-c2sc(-c4ncnn4-c4ccc(F)cc4F)cc2CCO3)C1 (stereo unspecified)
16,< 1000 nM,Cc1nc(-c2nc3c(s2)CCOc2cc(-c4cncn4CCO)ccc2-3)n(C(C)C)n1
17,< 1000 nM,COC[C@@H]1CCCN(C(=O)c2nc3c(s2)CCOc2cc(-c4cn[nH]c4)ccc2-3)C1
18,< 1000 nM,CC(C)n1ncnc1-c1nc2c(s1)CCOc1cc(-c3ccc(=O)[nH]c3)ccc1-2
19,< 1000 nM,CC(C)n1ncnc1-c1nc2c(s1)CCOc1cc(-c3cccc(CC(N)=O)c3)ccc1-2
